Measurements published in publication PMC11527162, “Mutational analysis of Phanerochaete chrysosporium´s purine transporter” (PLOS ONE, 2024).

Tests used:
PhZ [1] = target: T1, PhZ (Phanerodontia chrysosporium, UniProt A0A1B2TT73, A418V); experiment: competition with [3H]-hypoxanthine uptake in germinating A. nidulans conidia; type: cell-based; conditions: 0.2 uM [3H]-hypoxanthine, 37 °C
T1 construct: full length, 578 amino acids, from cDNA; C-terminal GFP fusion kept; expressed at the azgA locus of Aspergillus nidulans deltaZAC (azgA, uapA, uapC deleted)

PhZ [2] = target: T2, PhZ (Phanerodontia chrysosporium, UniProt A0A1B2TT73, L124M); experiment: as above; type: cell-based; conditions: 0.2 uM [3H]-hypoxanthine, 37 °C
T2 construct: full length, 578 amino acids, from cDNA; C-terminal GFP fusion kept; expressed at the azgA locus of Aspergillus nidulans deltaZAC (azgA, uapA, uapC deleted)

[3] = substrate: O=c1[nH]cnc2nc[nH]c12; experiment: inhibition of [3H]-hypoxanthine uptake by unlabelled hypoxanthine in germinating A. nidulans conidia; type: cell-based, Phanerodontia chrysosporium; conditions: 0.2 uM [3H]-hypoxanthine, 37 °C, minimal medium with nitrate, Km/i taken as equal to IC50 of unlabelled hypoxanthine
[4] = substrate: O=c1[nH]cnc2nc[nH]c12; experiment: as above; type: cell-based, Phanerodontia chrysosporium; conditions: 0.2 uM [3H]-hypoxanthine, 37 °C, minimal medium with nitrate, Km/i taken as equal to IC50 of unlabelled hypoxanthine; remark: listed apart in the source
Text: inhibition of [3H]-hypoxanthine uptake by unlabelled hypoxanthine in germinating A. nidulans conidia on PhZ | (A) PhZwt; (B-E) L124M, S133T, T392A and A418V mutants respectively.

[5] = substrate: O=c1[nH]cnc2nc[nH]c12; experiment: as above; type: cell-based, Phanerodontia chrysosporium; conditions: 0.2 uM [3H]-hypoxanthine, 37 °C, minimal medium with nitrate, Km/i taken as equal to IC50 of unlabelled hypoxanthine; remark: listed apart in the source
Text: inhibition of [3H]-hypoxanthine uptake by unlabelled hypoxanthine in germinating A. nidulans conidia on PhZ | Dose-response curves for hypoxanthine are shown.

Molecule	% of initial uptake velocity with 1 mM competitor (PhZ [1])	% of initial uptake velocity with 1 mM competitor (PhZ [2])	Km [4]	further results
Nc1nc2[nH]nnc2c(=O)[nH]1 [8-azaguanine]	the T392A and A418V mutants exhibited higher levels of inhibition	L124M and S133T, show less [^3H]-hypoxanthine inhibition regarding PhZwt with all purines		
Nc1ncnc2[nH]cnc12 [adenine]	the T392A and A418V mutants exhibited higher levels of inhibition	L124M and S133T, show less [^3H]-hypoxanthine inhibition regarding PhZwt with all purines		
Nc1nc2[nH]cnc2c(=O)[nH]1 [guanine]	the T392A and A418V mutants exhibited higher levels of inhibition	L124M and S133T, show less [^3H]-hypoxanthine inhibition regarding PhZwt with all purines		
PhZ (Phanerodontia chrysosporium; L124M) (protein, full length, 578 amino acids, from cDNA; C-terminal GFP fusion kept; expressed at the azgA locus of Aspergillus nidulans deltaZAC (azgA, uapA, uapC deleted)) MPIALTHRINAFVADSPVGRWFHLEGSGHPKERVGSRFLTELRAGLTTWAAMAYIISVNASIISDTGGTCVCTQPDLCVNDETYLSCVADVRRDLITSTAAVSALASFLMGLLANLPVGMAPGMGLNAYFTYSVVGFHGSGIITYREALAAVFLEGWFFFFLSLLGLRQWLARIMPQSLVMAVGAGIGLFIAFIGLSGGGLGVIGGDTTNLVGLGGCLPQYYTSPDLPNYCASHVLQSPTMWLGIFVGGVFTVFLMLYRVKGAILIGIFLTSIISWPRPTSVTYFPHTDTGDQAFDFFKQVVTFRPLKRIGNALDYNYSNGRVWYALITFLYVDILDTTGTLYSMAKFAGLRDPVTLDFENSTIAYCVDAFSISMGALMGTSPVTAFIESATGISEGGKTGLTAITTGFAFFISVFFAPIFASIPSWATGGALVIVGSLMIRNVRDINWDYVGDSVPAFLTLIIIPLTYNIAYGVIAGIISFVLINGLAWALRKVSGERFAPPNYDASEPWVIPPGSIVPAWMRFIAGRTGLARDAARERPADADVLEMEQHAHDAASASSLGKHVPAVAEPVTEKDD				Km [3]: 1.6 ± 0.3 µM
PhZ (Phanerodontia chrysosporium; A418V) (protein, full length, 578 amino acids, from cDNA; C-terminal GFP fusion kept; expressed at the azgA locus of Aspergillus nidulans deltaZAC (azgA, uapA, uapC deleted)) MPIALTHRINAFVADSPVGRWFHLEGSGHPKERVGSRFLTELRAGLTTWAAMAYIISVNASIISDTGGTCVCTQPDLCVNDETYLSCVADVRRDLITSTAAVSALASFLMGLLANLPVGMAPGLGLNAYFTYSVVGFHGSGIITYREALAAVFLEGWFFFFLSLLGLRQWLARIMPQSLVMAVGAGIGLFIAFIGLSGGGLGVIGGDTTNLVGLGGCLPQYYTSPDLPNYCASHVLQSPTMWLGIFVGGVFTVFLMLYRVKGAILIGIFLTSIISWPRPTSVTYFPHTDTGDQAFDFFKQVVTFRPLKRIGNALDYNYSNGRVWYALITFLYVDILDTTGTLYSMAKFAGLRDPVTLDFENSTIAYCVDAFSISMGALMGTSPVTAFIESATGISEGGKTGLTAITTGFAFFISVFFVPIFASIPSWATGGALVIVGSLMIRNVRDINWDYVGDSVPAFLTLIIIPLTYNIAYGVIAGIISFVLINGLAWALRKVSGERFAPPNYDASEPWVIPPGSIVPAWMRFIAGRTGLARDAARERPADADVLEMEQHAHDAASASSLGKHVPAVAEPVTEKDD			2.8 ± 0.4 µM	
PhZ (Phanerodontia chrysosporium; T392A) (protein, full length, 578 amino acids, from cDNA; C-terminal GFP fusion kept; expressed at the azgA locus of Aspergillus nidulans deltaZAC (azgA, uapA, uapC deleted)) MPIALTHRINAFVADSPVGRWFHLEGSGHPKERVGSRFLTELRAGLTTWAAMAYIISVNASIISDTGGTCVCTQPDLCVNDETYLSCVADVRRDLITSTAAVSALASFLMGLLANLPVGMAPGLGLNAYFTYSVVGFHGSGIITYREALAAVFLEGWFFFFLSLLGLRQWLARIMPQSLVMAVGAGIGLFIAFIGLSGGGLGVIGGDTTNLVGLGGCLPQYYTSPDLPNYCASHVLQSPTMWLGIFVGGVFTVFLMLYRVKGAILIGIFLTSIISWPRPTSVTYFPHTDTGDQAFDFFKQVVTFRPLKRIGNALDYNYSNGRVWYALITFLYVDILDTTGTLYSMAKFAGLRDPVTLDFENSTIAYCVDAFSISMGALMGTSPVTAFIESAAGISEGGKTGLTAITTGFAFFISVFFAPIFASIPSWATGGALVIVGSLMIRNVRDINWDYVGDSVPAFLTLIIIPLTYNIAYGVIAGIISFVLINGLAWALRKVSGERFAPPNYDASEPWVIPPGSIVPAWMRFIAGRTGLARDAARERPADADVLEMEQHAHDAASASSLGKHVPAVAEPVTEKDD			2.3 ± 0.3 µM	
PhZ (Phanerodontia chrysosporium; S133T) (protein, full length, 578 amino acids, from cDNA; C-terminal GFP fusion kept; expressed at the azgA locus of Aspergillus nidulans deltaZAC (azgA, uapA, uapC deleted)) MPIALTHRINAFVADSPVGRWFHLEGSGHPKERVGSRFLTELRAGLTTWAAMAYIISVNASIISDTGGTCVCTQPDLCVNDETYLSCVADVRRDLITSTAAVSALASFLMGLLANLPVGMAPGLGLNAYFTYTVVGFHGSGIITYREALAAVFLEGWFFFFLSLLGLRQWLARIMPQSLVMAVGAGIGLFIAFIGLSGGGLGVIGGDTTNLVGLGGCLPQYYTSPDLPNYCASHVLQSPTMWLGIFVGGVFTVFLMLYRVKGAILIGIFLTSIISWPRPTSVTYFPHTDTGDQAFDFFKQVVTFRPLKRIGNALDYNYSNGRVWYALITFLYVDILDTTGTLYSMAKFAGLRDPVTLDFENSTIAYCVDAFSISMGALMGTSPVTAFIESATGISEGGKTGLTAITTGFAFFISVFFAPIFASIPSWATGGALVIVGSLMIRNVRDINWDYVGDSVPAFLTLIIIPLTYNIAYGVIAGIISFVLINGLAWALRKVSGERFAPPNYDASEPWVIPPGSIVPAWMRFIAGRTGLARDAARERPADADVLEMEQHAHDAASASSLGKHVPAVAEPVTEKDD			2.1 ± 0.4 µM	
PhZ (Phanerodontia chrysosporium) (protein, full length, 578 amino acids, from cDNA; C-terminal GFP fusion kept; expressed at the azgA locus of Aspergillus nidulans deltaZAC (azgA, uapA, uapC deleted)) MPIALTHRINAFVADSPVGRWFHLEGSGHPKERVGSRFLTELRAGLTTWAAMAYIISVNASIISDTGGTCVCTQPDLCVNDETYLSCVADVRRDLITSTAAVSALASFLMGLLANLPVGMAPGLGLNAYFTYSVVGFHGSGIITYREALAAVFLEGWFFFFLSLLGLRQWLARIMPQSLVMAVGAGIGLFIAFIGLSGGGLGVIGGDTTNLVGLGGCLPQYYTSPDLPNYCASHVLQSPTMWLGIFVGGVFTVFLMLYRVKGAILIGIFLTSIISWPRPTSVTYFPHTDTGDQAFDFFKQVVTFRPLKRIGNALDYNYSNGRVWYALITFLYVDILDTTGTLYSMAKFAGLRDPVTLDFENSTIAYCVDAFSISMGALMGTSPVTAFIESATGISEGGKTGLTAITTGFAFFISVFFAPIFASIPSWATGGALVIVGSLMIRNVRDINWDYVGDSVPAFLTLIIIPLTYNIAYGVIAGIISFVLINGLAWALRKVSGERFAPPNYDASEPWVIPPGSIVPAWMRFIAGRTGLARDAARERPADADVLEMEQHAHDAASASSLGKHVPAVAEPVTEKDD				Km [5]: 2.7 ± 0.2 µM
